In US20260317320A1, “C5AR1 ANTAGONISTS AND USES THEREOF” (Vanqua Bio, Inc., priority 2022, published 2026):
pIC50: −log10 of the molar value. Where two headings read alike, the source gives them in different places.

Tests used:
[1] = target: T1, complement C5a receptor 1 (C5aR1) (Homo sapiens, UniProt P21730); experiment: β-arrestin recruitment via C5aR1 activation in live CHO-K1 cells (PathHunter), antagonist mode; type: cell-based; conditions: antagonist mode; recombinant hC5a (EC90) as competing natural agonist; live CHO-K1 cells; read-out: [Antagonist] B-arrestin2 recruitment: Average IC50
T1 construct: β-galactosidase fragment (PathHunter enzyme complementation); host or cells: CHO-K1 (PathHunter CHO-K1 C5aR1 β-arrestin cell line)
T1 sequence (P21730 1-350): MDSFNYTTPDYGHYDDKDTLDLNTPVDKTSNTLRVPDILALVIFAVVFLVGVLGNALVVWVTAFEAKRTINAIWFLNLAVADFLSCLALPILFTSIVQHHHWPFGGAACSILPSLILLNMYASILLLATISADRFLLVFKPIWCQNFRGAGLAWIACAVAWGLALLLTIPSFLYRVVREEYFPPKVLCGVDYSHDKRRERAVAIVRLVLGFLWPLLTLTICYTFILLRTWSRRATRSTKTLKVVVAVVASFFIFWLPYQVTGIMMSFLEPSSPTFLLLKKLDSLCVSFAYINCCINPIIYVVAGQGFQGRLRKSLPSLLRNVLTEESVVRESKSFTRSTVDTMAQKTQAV
Procedure, shortened: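 Live CHO-K1 cells carry two galactosidase enzyme fragments, one fused to β-arrestin and one to C5aR1, so that β-arrestin recruitment restores enzyme activity. Agonist mode tests compounds alone. Antagonist mode tests them against recombinant hC5a at EC90, and IC50 values are reported in binned ranges.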

[2] = target: T1, complement C5a receptor 1 (C5aR1); experiment: β-arrestin recruitment via C5aR1 activation in live CHO-K1 cells (PathHunter), agonist mode; type: cell-based
Protocol: Exemplary compounds were evaluated for classical GPCR β-arrestin recruitment via complement C5a receptor 1 (C5aR1) activation in live CHO-K1 cells. This cell line expresses two fragments of the […] protein coupled to β-arrestin and C5aR1. Complementation of the two fragments allows for the assessment of both C5aR1 agonism and antagonism. Recombinant hC5a (EC90) was used as the competing natural agonist against disclosed compounds (more information on the expanded protocol and cell line can be found on the manufacturer's website: PathHunter® CHO-K1 C5aR1 β-arrestin cell line, DiscoverX, Catalog No. 93-0557C2). […] IC50 ranges: A: IC50≤500 nM; B: 500 nM<IC50≤5 uM; C: 5 uM<IC50≤100 uM; D: IC50>100 uM.

pIC50 [1]	[Agonist] B-arrestin2 recruitment: Average EC50 (nM) ([2]; at 10 μM)	[Agonist] B-arrestin2 recruitment: Average EC50 (nM) [2]	SMILES
< 4.00	Non-Active at 10 μM		Cc1ccc2nc(C3CCN(c4c(C)cccc4F)CC3)c(=O)n(Cc3nccnc3C(F)(F)F)c2c1 [144A, 3-(1-(2-Fluoro-6-methylphenyl)piperidin-4-yl)-7-methyl-1-((3-(trifluoromethyl)pyrazin-2-yl)methyl)quinoxalin-2(1H)-one]
> 6.30		Non-Active	Cc1cnc2cc(C3CCN(c4c(C)cccc4F)CC3)c(=O)n(Cc3ncccc3C(F)(F)F)c2n1 [compound 41, 7-(1-(2-Fluoro-6-methylphenyl)piperidin-4-yl)-3-methyl-5-((3-(trifluoromethyl)pyridin-2-yl)methyl)pyrido[2,3-b]pyrazin-6(5H)-one]
> 6.30		Non-Active	Cc1cnc2cc([C@H]3CC[C@@H](c4c(C)cccc4F)C3)c(=O)n(Cc3ncccc3OC(F)F)c2n1 [175A, 5-((3-(Difluoromethoxy)pyridin-2-yl)methyl)-7-((1S,3R)-3-(2-fluoro-6-methylphenyl)cyclopentyl)-3-methylpyrido[2,3-b]pyrazin-6(5H)-one]
5.30 to 6.30		Non-Active	Cc1cccc(F)c1N1CCC(c2cc3nccnc3n([C@@H]3CCCc4nccnc43)c2=O)CC1 [43a, (R)-7-(1-(2-Fluoro-6-methylphenyl)piperidin-4-yl)-5-(5,6,7,8-tetrahydroquinoxalin-5-yl)pyrido[2,3-b]pyrazin-6(5H)-one]
> 6.30	Non-Active at 10 μM		Cc1cnc2cc([C@H]3CC[C@@H](c4c(C)cccc4F)C3)c(=O)n(Cc3ncccc3C(F)F)c2n1 [187A, 5-((3-(Difluoromethyl)pyridin-2-yl)methyl)-7-((1S,3R)-3-(2-fluoro-6-methylphenyl)cyclopentyl)-3-methylpyrido[2,3-b]pyrazin-6(5H)-one]
4.00 to 5.30		Non-Active	Cc1nccnc1N1CCC(c2cc3nccnc3n(Cc3ccccc3C(F)(F)F)c2=O)CC1 [compound 8, 7-(1-(3-Methylpyrazin-2-yl)piperidin-4-yl)-5-(2-(trifluoromethyl)benzyl)pyrido[2,3-b]pyrazin-6(5H)-one]
5.30 to 6.30		Non-Active	Cc1cnc2cc(C3CCN(c4c(C)cccc4F)CC3)c(=O)n([C@H]3CCCc4nccnc43)c2n1 [61a, (S)-7-(1-(2-Fluoro-6-methylphenyl)piperidin-4-yl)-3-methyl-5-(5,6,7,8-tetrahydroquinoxalin-5-yl) pyrido[2,3-b]pyrazin-6(5H)-one]
5.30 to 6.30	Non-Active at 10 μM		Cc1cnc2cc(C3CCN(c4cccnc4C(F)(F)F)CC3)c(=O)n(Cc3ncccc3C(F)(F)F)c2n1 [compound 157, 3-Methyl-5-((3-(trifluoromethyl)pyridin-2-yl)methyl)-7-(1-(2-(trifluoromethyl)pyridin-3-yl)piperidin-4-yl)pyrido[2,3-b]pyrazin-6(5H)-one]
5.30 to 6.30		Non-Active	Cc1cnc2c(C)c(N3CCN(c4c(C)cccc4F)CC3)c(=O)n(Cc3ncccc3C(F)(F)F)c2n1 [compound 118, 7-(4-(2-fluoro-6-methylphenyl)piperazin-1-yl)-3,8-dimethyl-5-((3-(trifluoromethyl)pyridin-2-yl)methyl)pyrido[2,3-b]pyrazin-6(5H)-one]
> 6.30		Non-Active	Cc1ccc2cc([C@H]3CC[C@H](c4c(C)ccnc4F)CC3)c(=O)n(Cc3ncccc3OC(F)(F)F)c2n1 [compound 255, 7-Methyl-3-[(1r,4r)-4-(2-fluoro-4-methyl-3-pyridyl)cyclohexyl]-1-[(3-trifluoromethoxy-2-pyridyl)methyl]-1,8-diaza-2(1H)-naphthalenone]
> 6.30	Non-Active at 10 μM		Cc1ccc2cc([C@H]3CC[C@H](c4cnccc4C(F)(F)F)CC3)c(=O)n(Cc3ncccc3C3CC3)c2n1 [compound 248, 1-((3-Cyclopropylpyridin-2-yl)methyl)-7-methyl-3-((1r,4r)-4-(4-(trifluoromethyl)pyridin-3-yl)cyclohexyl)-1,8-naphthyridin-2(1H)-one]
> 6.30		Non-Active	COc1nccc(C)c1[C@H]1CC[C@H](c2cc3ccc(C)nc3n(Cc3ncccc3OC(F)(F)F)c2=O)CC1 [compound 261, 7-Methyl-3-[(1r,4r)-4-(2-methoxy-4-methyl-3-pyridyl)cyclohexyl]-1-[(3-trifluoromethoxy-2-pyridyl)methyl]-1,8-diaza-2(1H)-naphthalenone]
5.30 to 6.30		Non-Active	Cc1cccc(F)c1N1CCC(c2cc3nccnc3n([C@H]3CCCc4nccnc43)c2=O)CC1 [43b, (S)-7-(1-(2-Fluoro-6-methylphenyl)piperidin-4-yl)-5-(5,6,7,8-tetrahydroquinoxalin-5-yl)pyrido[2,3-b]pyrazin-6(5H)-one]
> 6.30	Non-Active at 10 μM		FC(F)(F)c1cccnc1CN1CC(C2CCN(c3ncccc3Cl)CC2)=Cc2nccnc21 [compound 170, 7-(1-(3-Chloropyridin-2-yl)piperidin-4-yl)-5-((3-(trifluoromethyl)pyridin-2-yl)methyl)-5,6-dihydropyrido[2,3-b]pyrazine]
4.00 to 5.30	Non-Active at 10 μM		Cc1cnc2cc([C@H]3CC[C@H](c4c(F)ccc5c4cnn5C)CC3)c(=O)n(Cc3ncccc3C(F)(F)F)c2n1 [compound 207, 7-((1r,4r)-4-(5-Fluoro-1-methyl-1H-indazol-4-yl)cyclohexyl)-3-methyl-5-((3-(trifluoromethyl)pyridin-2-yl)methyl)pyrido[2,3-b]pyrazin-6(5H)-one]
> 6.30		Non-Active	Cc1cnc2cc([C@H]3CC[C@H](c4c(C)cccc4F)C3)c(=O)n(Cc3ncccc3C(F)(F)F)c2n1 [171C, 7-((1S,3S)-3-(2-Fluoro-6-methylphenyl)cyclopentyl)-3-methyl-5-((3-(trifluoromethyl)pyridin-2-yl)methyl)pyrido[2,3-b]pyrazin-6(5H)-one]
5.30 to 6.30		Non-Active	O=c1c(C2CCN(c3cnccc3C(F)(F)F)CC2)cc2nccnc2n1Cc1nccnc1C(F)(F)F [compound 70, 5-((3-(Trifluoromethyl)pyrazin-2-yl)methyl)-7-(1-(4-(trifluoromethyl)pyridin-3-yl)piperidin-4-yl)pyrido[2,3-b]pyrazin-6(5H)-one]
> 6.30		Non-Active	Cc1cnc2cc(C3CCN(c4c(C)cccc4F)CC3)c(=O)n(Cc3ncccc3C(F)F)c2n1 [compound 138, 5-((3-(Difluoromethyl)pyridin-2-yl)methyl)-7-(1-(2-fluoro-6-methylphenyl)piperidin-4-yl)-3-methylpyrido[2,3-b]pyrazin-6(5H)-one]
< 4.00		Non-Active	Cc1ncc(F)cc1N1CCC(c2cc3nccnc3n(Cc3nccnc3C(F)(F)F)c2=O)CC1 [compound 45, 7-(1-(5-Fluoro-2-methylpyridin-3-yl)piperidin-4-yl)-5-((3-(trifluoromethyl)pyrazin-2-yl)methyl)pyrido[2,3-b]pyrazin-6(5H)-one]
5.30 to 6.30		Non-Active	COc1nccnc1Cn1c(=O)c(N2CCN(c3c(C)cccc3F)CC2)cc2ncc(C)nc21 [compound 125, 7-(4-(2-Fluoro-6-methylphenyl)piperazin-1-yl)-5-((3-methoxypyrazin-2-yl)methyl)-3-methylpyrido[2,3-b]pyrazin-6(5H)-one]
> 6.30	Non-Active at 10 μM		Cc1cnc2cc(C3CCN(c4c(C)ccnc4F)CC3)c(=O)n(Cc3nccnc3C)c2n1 [compound 134, 7-(1-(2-Fluoro-4-methylpyridin-3-yl)piperidin-4-yl)-3-methyl-5-((3-methylpyrazin-2-yl)methyl)pyrido[2,3-b]pyrazin-6(5H)-one]
> 6.30		Non-Active	Cc1cnc2cc([C@H]3CC[C@H](c4c(C)cccc4F)CC3)c(=O)n(Cc3nccnc3C(F)F)c2n1 [148B, 5-((3-(Difluoromethyl)pyrazin-2-yl)methyl)-7-((1r,4r)-4-(2-fluoro-6-methylphenyl)cyclohexyl)-3-methylpyrido[2,3-b]pyrazin-6(5H)-one]
